Here are results for one substance from paper PMC12935919 (Frontiers in Pharmacology, 2026).

Experiment [1] relates to SAMP8 mice. Briefly: H&E myofiber area in muscle. The class given is in vivo, mouse. The note with it: oral gavage once daily 45 weeks, 20 mg Myoki in 200 µL PBS, n = 5, vs SAMP8 group. How it is done: (§1) Eight week old male senescence-accelerated mouse-prone 8 (SAMP8)/Ta Slc and senescence-accelerated mouse-resistant 1 (SAMR1)/Ta Slc mice (weighing 30 ± 2 g) were purchased from Central Lab Animal Inc. (Seoul, Korea) and housed at 24 °C in cages under a 12/12 h light/dark cycle with ad libitum access to food and water. […] Mice in all groups were dosed once daily by oral gavage for 45 weeks. […] This study was approved by the Institutional Animal Care and Use Committee (approval number CG-R22-001).
(§2) Quadriceps (Quad) and gastrocnemius (Gas) muscle tissues were harvested and immersion-fixed in 10% neutral buffered formalin at 4 °C for 24 h. Following fixation, the tissues were dehydrated through a graded series of ethanol, cleared in xylene, and embedded in paraffin. Paraffin-embedded tissues were sectioned at a thickness of 5 μm. The tissue sections mounted on slides were deparaffinized, washed, and stained with hematoxylin (Dako, S3309) and eosin (Thermo Fisher Scientific, #6766007) (H&E). To assess the degree of muscle fibrosis, they were also stained using a Sirius Red Stain Kit (Abcam, ab150681) according to the manufacturer’s instructions. […] For each animal, three images were randomly selected from the stained sections, and the total stained area per image, rather than individual muscle fibers, was quantified using ImageJ software.

Experiment [2] relates to SAMP8 mice. Briefly: Sirius Red collagen deposition in muscle. It is filed as in vivo, mouse. The note with it: normalized to SAMR1 = 100%, oral gavage 45 weeks, 20 mg in 200 µL PBS, n = 5, mean ± SD. How it is done:
as §1, §2

No end group written: not given here.

EAEYEHL-OH [Myoki]: in experiment [1], the “myofiber area, gastrocnemius” value is given as “significantly increased” and the “myofiber area, quadriceps” value is recorded as “significantly increased”. Further, the “collagen deposition, quadriceps” value in experiment [2] (untreated SAMP8 185% ± 10.61%, difference not statistically significant) was 151% ± 28.82%. Also, the “collagen deposition, gastrocnemius” value in experiment [2] (untreated SAMP8 291% ± 19.72%) is 194% ± 22.84%.
